Measured values published in patent US20040266623A1, “SYNERGISTIC QUINCLORAC HERBICIDAL COMPOSITIONS” (priority 2003, published 2004).

What was measured:
Assay in all cases: Greenhouse pot test, postemergent spray, visual control rating converted to percent control
Assay type in all cases: in vivo
crabgrass = tested on: crabgrass
Experimental: (§1) Pots of crabgrass, dandelion, white clover, and plantain grown in greenhouse soiless growth media were sprayed with a greenhouse pot sprayer at 43.46 gallons of spray solution/acre and allowed to stand in the greenhouse. Visual observation of the effects made by the herbicidal compositions on the plants in the test pots was recorded for control of crabgrass, dandelion, clover and plantain at 24 hours after treatment (HAT), 48 hours after treatment (HAT), 72 hours after treatment (HAT), 7 days after treatment (DAT), 14 days after treatment (DAT) and 21 days after treatment (DAT). A control rating scale of 1 to 9 was used to record the visual observation of the effect of the herbicidal composition on the plants over the time period of the tests. 1=no control, and 9=death of plant, with intervening numbers representing successive degrees of observed effectiveness of the herbicidal composition over time. The 1-9 control rating scale was converted to percent control in the test data charts that follow.
(§2) The test protocol of S. R. Colby as set out in his article entitled “Calculating Synergistic and Antagonistic Responses of Herbicide Compositions,” received for publication Apr. 11, 1966, Contribution No. 3796 and Scientific Article No. 1271 of the Maryland Agricultural Experiment Station, Department pf Agronomy, University of Maryland was followed to evaluate the synergistic properties of the combination of quinclorac plus a herbicidal protox inhibitor, and a combination of quinclorac, plus a herbicidal protox inhibitor plus a herbicidal auxinic agent as compared with the individual herbicides, using Colby's formulas E=X+Y−XY/100 for a two herbicide combination, where E=the expected percent of inhibition of growth by herbicides, X=the percent inhibition of growth by herbicide A at p lb/A, and Y=the percent inhibition of growth by herbicide B at q lb/A, for a given combination of two herbicides. Colby's formula E=X+Y+Z−(XY+XZ+YZ)/100+XYZ/10,000, was used for the three-way herbicide combination evaluation, where E, X and Y are the same as in the two herbicide formula and Z=the percent inhibition of growth by the third herbicide.

dandelion = tested on: dandelion
Experimental: as §1, §2

plantain = tested on: plantain
Experimental: as §1, §2

white clover = tested on: white clover
Experimental: as §1, §2

Cc1nn(-c2cc(CC(Cl)C(=O)O)c(Cl)cc2F)c(=O)n1C(F)F (centres unmarked) [Carfentrazone]
22.2%: % Control Crabgrass (crabgrass; Test 1, 24 HAT, 0.01 lbs/A)
55.6%: % Control Crabgrass (crabgrass; Test 1, 48 HAT, 0.02 lbs/A) | % Control Crabgrass (crabgrass; Test 4, 7 DAT, 0.01 lbs/A) | % Control Crabgrass (crabgrass; Test 4, 7 DAT, 0.02 lbs/A) | % Control Crabgrass (crabgrass; Test 4, 14 DAT, 0.01 lbs/A) | % Control Crabgrass (crabgrass; Test 4, 14 DAT, 0.02 lbs/A) | % Control Dandelion (dandelion; Test 1, 48 HAT, 0.01 lbs/A) | % Control Dandelion (dandelion; Test 1, 48 HAT, 0.02 lbs/A) | % Control Dandelion (dandelion; Test 4, 7 DAT, 0.01 lbs/A) | % Control Dandelion (dandelion; Test 4, 14 DAT, 0.01 lbs/A) | % Control Clover (white clover; Test 1, 48 HAT, 0.01 lbs/A) | % Control Clover (white clover; Test 1, 48 HAT, 0.02 lbs/A)
88.9%: % Control Dandelion (dandelion; Test 1, 7 DAT, 0.01 lbs/A) | % Control Dandelion (dandelion; Test 1, 7 DAT, 0.02 lbs/A) | % Control Dandelion (dandelion; Test 1, 14 DAT, 0.01 lbs/A) | % Control Dandelion (dandelion; Test 4, 7 DAT, 0.02 lbs/A) | % Control Dandelion (dandelion; Test 4, 14 DAT, 0.02 lbs/A) | % Control Plantain (plantain; Test 4, 7 DAT, 0.02 lbs/A) | % Control Plantain (plantain; Test 4, 14 DAT, 0.02 lbs/A) | % Control Clover (white clover; Test 4, 14 DAT, 0.02 lbs/A)
2: Control (1-9) Crabgrass (crabgrass; Test 1, 24 HAT, 0.01 lbs/A)
66.7%: % Control Clover (white clover; Test 1, 7 DAT, 0.01 lbs/A) | % Control Clover (white clover; Test 1, 7 DAT, 0.02 lbs/A) | % Control Clover (white clover; Test 4, 7 DAT, 0.01 lbs/A) | % Control Clover (white clover; Test 4, 14 DAT, 0.01 lbs/A)
7: Control (1-9) Crabgrass (crabgrass; Test 1, 7 DAT, 0.01 lbs/A) | Control (1-9) Crabgrass (crabgrass; Test 1, 7 DAT, 0.02 lbs/A) | Control (1-9) Clover (white clover; Test 1, 14 DAT, 0.01 lbs/A) | Control (1-9) Clover (white clover; Test 4, 7 DAT, 0.02 lbs/A)
44.4%: % Control Dandelion (dandelion; Test 1, 24 HAT, 0.01 lbs/A)
100.0%: % Control Dandelion (dandelion; Test 1, 14 DAT, 0.02 lbs/A) | % Control Plantain (plantain; Test 4, 7 DAT, 0.01 lbs/A) | % Control Plantain (plantain; Test 4, 14 DAT, 0.01 lbs/A) | % Control Clover (white clover; Test 1, 14 DAT, 0.02 lbs/A)
6: Control (1-9) Clover (white clover; Test 1, 7 DAT, 0.01 lbs/A) | Control (1-9) Clover (white clover; Test 1, 7 DAT, 0.02 lbs/A) | Control (1-9) Clover (white clover; Test 4, 7 DAT, 0.01 lbs/A) | Control (1-9) Clover (white clover; Test 4, 14 DAT, 0.01 lbs/A)
4: Control (1-9) Dandelion (dandelion; Test 1, 24 HAT, 0.01 lbs/A)
8: Control (1-9) Dandelion (dandelion; Test 1, 7 DAT, 0.01 lbs/A) | Control (1-9) Dandelion (dandelion; Test 1, 7 DAT, 0.02 lbs/A) | Control (1-9) Dandelion (dandelion; Test 1, 14 DAT, 0.01 lbs/A) | Control (1-9) Dandelion (dandelion; Test 4, 7 DAT, 0.02 lbs/A) | Control (1-9) Dandelion (dandelion; Test 4, 14 DAT, 0.02 lbs/A) | Control (1-9) Plantain (plantain; Test 4, 7 DAT, 0.02 lbs/A) | Control (1-9) Plantain (plantain; Test 4, 14 DAT, 0.02 lbs/A) | Control (1-9) Clover (white clover; Test 4, 14 DAT, 0.02 lbs/A)
33.3%: % Control Crabgrass (crabgrass; Test 1, 14 DAT, 0.01 lbs/A) | % Control Crabgrass (crabgrass; Test 1, 14 DAT, 0.02 lbs/A) | % Control Crabgrass (crabgrass; Test 1, 24 HAT, 0.02 lbs/A) | % Control Crabgrass (crabgrass; Test 1, 48 HAT, 0.01 lbs/A) | % Control Dandelion (dandelion; Test 1, 24 HAT, 0.02 lbs/A) | % Control Clover (white clover; Test 1, 24 HAT, 0.01 lbs/A) | % Control Clover (white clover; Test 1, 24 HAT, 0.02 lbs/A)
3: Control (1-9) Crabgrass (crabgrass; Test 1, 14 DAT, 0.01 lbs/A) | Control (1-9) Crabgrass (crabgrass; Test 1, 14 DAT, 0.02 lbs/A) | Control (1-9) Crabgrass (crabgrass; Test 1, 24 HAT, 0.02 lbs/A) | Control (1-9) Crabgrass (crabgrass; Test 1, 48 HAT, 0.01 lbs/A) | Control (1-9) Dandelion (dandelion; Test 1, 24 HAT, 0.02 lbs/A) | Control (1-9) Clover (white clover; Test 1, 24 HAT, 0.01 lbs/A) | Control (1-9) Clover (white clover; Test 1, 24 HAT, 0.02 lbs/A)
77.8%: % Control Crabgrass (crabgrass; Test 1, 7 DAT, 0.01 lbs/A) | % Control Crabgrass (crabgrass; Test 1, 7 DAT, 0.02 lbs/A) | % Control Clover (white clover; Test 1, 14 DAT, 0.01 lbs/A) | % Control Clover (white clover; Test 4, 7 DAT, 0.02 lbs/A)
9: Control (1-9) Dandelion (dandelion; Test 1, 14 DAT, 0.02 lbs/A) | Control (1-9) Plantain (plantain; Test 4, 7 DAT, 0.01 lbs/A) | Control (1-9) Plantain (plantain; Test 4, 14 DAT, 0.01 lbs/A) | Control (1-9) Clover (white clover; Test 1, 14 DAT, 0.02 lbs/A)
5: Control (1-9) Crabgrass (crabgrass; Test 1, 48 HAT, 0.02 lbs/A) | Control (1-9) Crabgrass (crabgrass; Test 4, 7 DAT, 0.01 lbs/A) | Control (1-9) Crabgrass (crabgrass; Test 4, 7 DAT, 0.02 lbs/A) | Control (1-9) Crabgrass (crabgrass; Test 4, 14 DAT, 0.01 lbs/A) | Control (1-9) Crabgrass (crabgrass; Test 4, 14 DAT, 0.02 lbs/A) | Control (1-9) Dandelion (dandelion; Test 1, 48 HAT, 0.01 lbs/A) | Control (1-9) Dandelion (dandelion; Test 1, 48 HAT, 0.02 lbs/A) | Control (1-9) Dandelion (dandelion; Test 4, 7 DAT, 0.01 lbs/A) | Control (1-9) Dandelion (dandelion; Test 4, 14 DAT, 0.01 lbs/A) | Control (1-9) Clover (white clover; Test 1, 48 HAT, 0.01 lbs/A) | Control (1-9) Clover (white clover; Test 1, 48 HAT, 0.02 lbs/A)
